Test results: PMC12298648, “An Evaluation of the Cytotoxicity and Safety Profile of Usnic Acid for a Broad Panel of Human Cancers and Normal Cells with Respect to Its Enantiospecificity” (Molecules, 2025)
In brackets after ≈: the same amount, converted by molar mass. Read-outs that look alike come from different tables or passages of the source.

How the values were obtained:
HT29 = assay: MTT viability assay, HT29 colon cancer cells; format: cell-based, human; settings: for Cell viability: HT29, 24 h; for IC50: Homo sapiens, HT-29
Excerpt: (§1) Cell lines of different origins were used in the study and grouped as follows: prostate panel (human prostate carcinomas: DU145, derived from metastatic site: brain; grade IV PC3, derived from metastatic site: bone; LNCaP, derived from the metastatic site: lymph node; prostate epithelial, PNT2), colon panel (colorectal adenocarcinomas: HT29, originating from a primary tumor; Duke’s type C DLD-1, with the potential to lymph node metastasis; highly metastatic HCT116; colon epithelial cells CCD 841 CoN), thyroid panel (follicular thyroid carcinoma FTC133, anaplastic thyroid carcinoma 8505C, papillary thyroid carcinoma TPC-1, normal thyroid follicular epithelial Nthy-ori 3–1), breast panel (ER-positive breast adenocarcinoma MCF7, ER-negative breast adenocarcinoma MDA-MB-231, breast epithelial MCF10A), brain panel (neuroblastoma SH-SY5Y, glioblastoma U-87 MG, murine astrocytes C8D1A). All cell lines were purchased from Merck (Darmstadt, Germany).
(§2) Cells were grown under standard conditions (37 °C, 5% CO2) and culture media (DMEM/F12 for PNT2, PC3, FTC133, 8505 C, MDA-MB-231, TPC-1; DMEM Low Glucose for DU145; DMEM High Glucose for HCT116, DLD-1, SH-SY5Y, U87MG, C8D1A; MEM with NEAA for MCF7; MEM for CCD 841 CoN; McCoy’s for HT29; RPMI1640 with sodium pyruvate for LNCaP; DMEM/F12 with 20 ng/mL epidermal growth factor (EGF), 10 μg/mL insulin, 0.5 μg/mL hydrocortisone, 100 ng/mL cholera toxin) for MCF10A), supplemented with 10% fetal bovine serum (FBS) or 5% donor horse serum for MCF10A, and 1% antibiotics solution (10,000 U penicillin and 10 mg streptomycin/mL). The tested substances were prepared as 10 mg/mL stock solutions in DMSO and further diluted in the culture media to the working concentrations. Cells were treated with UA enantiomers at the concentration range of 0–50 µg/mL. The influence of DMSO on cell viability was also examined, with the final concentration […], and no toxic effect was noted.
(§3) The cells were seeded onto 96-well plates at a density of 1.5 × 10^4 cells/well. After 24 h UA enantiomers were added. Cell viability was determined after 24, 48, and 72 h by the MTT assay, as described previously. Doxorubicin was used as a reference cytostatic drug. All analyses were performed in triplicate; cell viability was expressed as % of control, untreated cells (mean ± SD), and IC50 values (concentration at which cell viability is inhibited by 50%), if possible.

CCD 841 CoN = assay: MTT viability assay, normal colon epithelial cells; format: cell-based, human; settings: for Cell viability: CCD 841 CoN, 24 h; for IC50: Homo sapiens, CCD-841CoN
Excerpt: as §1, §2, §3

LNCaP = assay: MTT viability assay, LNCaP prostate cancer cells; format: cell-based, human; settings: for Cell viability: 24 h; for IC50: Homo sapiens
Excerpt: as §1, §2, §3

PNT2 = assay: MTT viability assay, normal prostate epithelial cells; format: cell-based, human; settings: for IC50: Homo sapiens; for Cell viability: PNT2, 24 h
Excerpt: as §1, §2, §3

8505C = assay: MTT viability assay, 8505C anaplastic thyroid carcinoma cells; format: cell-based, human; settings: for Cell viability: 24 h; for IC50: Homo sapiens
Excerpt: as §1, §2, §3

MCF7 = assay: MTT viability assay, MCF7 breast cancer cells; format: cell-based, human; settings: for IC50: Homo sapiens; for Cell viability: MCF7, 24 h
Excerpt: as §1, §2, §3
The selectivity index (SI) was calculated, if possible, by dividing the IC50 value obtained for non-cancerous cells line by the IC50 values obtained for appropriate cancer cell line, as described previously. […] The values above 3 indicate good selectivity.

HT29 cells = settings: cited from earlier work
DU145 cells = settings: cited from earlier work
MCF7 cells = tested on: MCF7 cells; design: method as in not printed ('another' study); settings: MCF7, 72 h, ref not given ('another' study), cited from earlier work
glioblastoma U251 cells = tested on: glioblastoma U251 cells; design: method as in PMID 18558490; settings: U251, 72 h, cited from earlier work
WM793 cells = tested on: WM793 cells; design: method as in PMID 34577645; settings: WM793, 48 h; cited from earlier work
HepG2 cells = tested on: HepG2 cells; design: method as in PMID 40368021; settings: cited from earlier work
[1] = recalculated from µM by the authors

CC(=O)C1=C(O)C=C2Oc3c(C(C)=O)c(O)c(C)c(O)c3[C@@]2(C)C1=O [UA(+), (+)-usnic acid]
Cell viability (HT29; 2.5 µg/mL): 103.23 % of control | Cell viability (HT29; 5 µg/mL): 91.51 % of control | Cell viability (HT29; 10 µg/mL): 88.42 % of control | Cell viability (HT29; 20 µg/mL): 84.70 % of control | Cell viability (HT29; 30 µg/mL): 77.54 % of control | Cell viability (HT29; 40 µg/mL): 74.11 % of control | Cell viability (HT29; 50 µg/mL): 72.56 % of control | IC50 (HT29; HT29, 48 h): > 50 µg/mL | IC50 (HT29; HT29, 72 h): > 50 µg/mL | Cell viability (CCD 841 CoN; 2.5 µg/mL): 104.22 % of control | Cell viability (CCD 841 CoN; 5 µg/mL): 103.61 % of control | Cell viability (CCD 841 CoN; 10 µg/mL): 99.72 % of control | Cell viability (CCD 841 CoN; 20 µg/mL): 111.77 % of control | Cell viability (CCD 841 CoN; 30 µg/mL): 101.26 % of control | Cell viability (CCD 841 CoN; 40 µg/mL): 95.35 % of control | Cell viability (CCD 841 CoN; 50 µg/mL): 96.52 % of control | IC50 (CCD 841 CoN; 48 h): > 50 µg/mL | IC50 (CCD 841 CoN; 72 h): > 50 µg/mL | Cell viability (LNCaP; 2.5 µg/mL): 87.68 % of control | Cell viability (LNCaP; 5 µg/mL): 81.45 % of control | Cell viability (LNCaP; 10 µg/mL): 79.71 % of control | Cell viability (LNCaP; 20 µg/mL): 75.51 % of control | Cell viability (LNCaP; 30 µg/mL): 71.45 % of control | Cell viability (LNCaP; 40 µg/mL): 69.13 % of control | Cell viability (LNCaP; 50 µg/mL): 69.71 % of control | IC50 (LNCaP; 48 h): > 50 µg/mL | IC50 (LNCaP; 72 h): > 50 µg/mL | IC50 (PNT2; PNT2, 48 h): 37.4 µg/mL (≈ 109 µM) | IC50 (PNT2; PNT2, 72 h): 20.4 µg/mL (≈ 59.2 µM) | Cell viability (PNT2; 5 µg/mL): 101.11 % of control | Cell viability (PNT2; 10 µg/mL): 104.00 % of control | Cell viability (PNT2; 20 µg/mL): 96.96 % of control | Cell viability (PNT2; 30 µg/mL): 68.67 % of control | Cell viability (PNT2; 40 µg/mL): 59.70 % of control | Cell viability (PNT2; 50 µg/mL): 56.52 % of control | Cell viability (8505C; 2.5 µg/mL): 102.52 % of control | Cell viability (8505C; 5 µg/mL): 103.05 % of control | Cell viability (8505C; 10 µg/mL): 98.80 % of control | Cell viability (8505C; 20 µg/mL): 102.26 % of control | Cell viability (8505C; 30 µg/mL): 99.47 % of control | Cell viability (8505C; 40 µg/mL): 102.26 % of control | Cell viability (8505C; 50 µg/mL): 108.63 % of control | IC50 (8505C; 48 h): > 50 µg/mL | IC50 (8505C; 72 h): > 50 µg/mL | IC50 (MCF7; MCF7, 48 h): > 50 µg/mL | IC50 (MCF7; MCF7, 72 h): > 50 µg/mL | Cell viability (MCF7; 2.5 µg/mL): 106.54 % of control | Cell viability (MCF7; 5 µg/mL): 108.77 % of control | Cell viability (MCF7; 10 µg/mL): 108.15 % of control | Cell viability (MCF7; 20 µg/mL): 103.95 % of control | Cell viability (MCF7; 30 µg/mL): 89.38 % of control | Cell viability (MCF7; 40 µg/mL): 87.41 % of control | Cell viability (MCF7; 50 µg/mL): 87.78 % of control | selectivity index (SI) (MCF7; MCF7 cells, 72 h): ~3 | IC50 (HT29 cells; HT29, recalculated from µM by the authors, ref 21): 24.1 µg/mL | IC50 (HT29 cells; HT29, recalculated from µM by the authors, ref 22): 34.3 µg/mL | IC50 (HT29 cells; HT29, ref 21, read-out: IC50): 70 µM | IC50 (HT29 cells; HT29, ref 22, read-out: IC50): 99.7 µM | IC50 (DU145 cells; DU145, 48 h, recalculated from µM by the authors): 14.5 µg/mL | IC50 (DU145 cells; DU145, 48 h, read-out: IC50): 42.1 µM | IC50 (DU145 cells; DU145, 72 h, recalculated from µM by the authors): 19.7 µg/mL | IC50 (DU145 cells; DU145, 72 h, read-out: IC50): 57.4 µM | IC50 (MCF7 cells; [1]): 36.3 µg/mL | IC50 (MCF7 cells; read-out: IC50): 105 µM | IC50 (glioblastoma U251 cells; [1]): 6.7 µg/mL | IC50 (glioblastoma U251 cells; read-out: IC50): 19.5 µM | IC50 (WM793 cells): 30.05 µg/mL (≈ 87.3 µM) | IC50 (hepatotoxicity) (HepG2 cells; HepG2, 48 h): 28.2 µg/mL (≈ 81.9 µM) | IC50 (hepatotoxicity) (HepG2 cells; HepG2, 72 h): 24.4 µg/mL (≈ 70.9 µM)
